{
  "source": "patent US6531481B2",
  "about": "(priority 1998, dated 2003)",
  "key": {"[1]": {"system": "opioid receptors", "experiment": "Stimulation of [35S]GTPγS binding (agonist/antagonist activity)", "assay_type": "biochemical, guinea pig"}},
  "note": "Counter-ions that a name gives are not always drawn.",
  "data": [
    {"smiles": "C=CCN1CC[C@H](N(c2ccccc2)c2ccc(C(=O)N(CC)CC)cc2)[C@H](C)C1", "note": "(racemic) (as salt: hydrochloride)", "values": [
      {"measurement": "melting point", "result": "221 to 225.5", "unit": "°C"}
    ]},
    {"smiles": "C=CCN1CC[C@@H](N(c2ccccc2)c2ccc(C(=O)N(CC)CC)cc2)[C@H](C)C1", "note": "(racemic) (as salt: hydrochloride)", "values": [
      {"measurement": "melting point", "result": "177 to 178", "unit": "°C"}
    ]},
    {"smiles": "CN1CCC2(c3cccc(O)c3)Cc3ccccc3CC2(C)C1", "note": "(racemic) [Compound 7, (±)-1,2,3,4,4a,5,10,10a-octahydro-4a-(3-hydroxyphenyl)-2,10a-dimethylbenzo-[g]isoquinoline]", "values": [
      {"measurement": "stimulation of [35S]GTPγS binding (agonist activity)", "setting": "[1]; concentrations as high as 1 μM", "result": "neither the N-methyl derivative 7 nor the N-phenethyl derivative 8 stimulated"}
    ]},
    {"smiles": "CC1C2CCCC1(c1cccc(O)c1)CCN2CCc1ccccc1", "note": "(stereo not drawn) [Compound 5c, 5-(3-Hydroxyphenyl)-9β-methyl-2-(2′-phenylethyl)-2-azabicyclo[3.3.1]nonane]", "values": [
      {"measurement": "agonist/antagonist character", "setting": "[1]; [35S]GTPγS functional assay", "result": "pure antagonists at the μ, δ, and κ opioid receptors"},
      {"measurement": "stimulation of GTP binding (agonist activity)", "setting": "[1]; up to concentrations of 10 μM", "result": "neither 5b nor 5c stimulated GTP binding"}
    ]}
  ]
}
